Test results as given in publication PMC10101011, “A Retro-Aldol Reaction Prompted the Evolvability of a Phosphotransferase System for the Utilization of a Rare Sugar” (Microbiology Spectrum, 2023).

Key:
Type in all cases: biochemical
FruK (EC_FruK) [1] = biological target: T1, FruK (EC_FruK) (Escherichia coli, UniProt P0AEW9); experiment: coupled NADH oxidation assay (FbaA, TPI, G3PDH); details: 2 mM ATP, 2 mM substrate, 10 mM MgCl2, pH 8.0, 25 °C
T1 construct: His-tagged, pET-28a(+), expressed in E. coli BL21(DE3)
T1 sequence (P0AEW9 whole entry): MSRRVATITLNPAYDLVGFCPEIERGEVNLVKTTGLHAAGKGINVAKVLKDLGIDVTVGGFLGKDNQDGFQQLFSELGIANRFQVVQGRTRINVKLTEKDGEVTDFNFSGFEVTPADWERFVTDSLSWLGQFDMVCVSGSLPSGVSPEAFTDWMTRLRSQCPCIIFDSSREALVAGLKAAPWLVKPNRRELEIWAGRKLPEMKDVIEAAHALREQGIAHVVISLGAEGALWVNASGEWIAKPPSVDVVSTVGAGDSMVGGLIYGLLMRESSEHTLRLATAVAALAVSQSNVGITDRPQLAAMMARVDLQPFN

EC_GatY = biological target: T2, EC_GatY (Escherichia coli, UniProt P0C8J6); experiment: coupled NADH oxidation assay (TPI, G3PDH); details: 1 mM substrate, 10 mM MgCl2, pH 8.0, 25 °C
T2 construct: gene gatY; catalytic subunit alone without GatZ, His-tagged, pET-28a(+), 30 kDa
T2 sequence (P0C8J6 whole entry): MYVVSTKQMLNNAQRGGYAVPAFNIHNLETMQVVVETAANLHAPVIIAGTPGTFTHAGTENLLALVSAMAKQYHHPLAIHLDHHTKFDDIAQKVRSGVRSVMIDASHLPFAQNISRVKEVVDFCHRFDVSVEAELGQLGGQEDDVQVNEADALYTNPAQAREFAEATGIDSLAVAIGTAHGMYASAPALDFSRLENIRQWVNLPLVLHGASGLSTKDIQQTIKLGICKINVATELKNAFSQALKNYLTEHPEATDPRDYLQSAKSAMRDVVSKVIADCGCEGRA

EC_KbaY = biological target: T3, EC_KbaY (Escherichia coli, UniProt P0AB74); experiment: coupled NADH oxidation assay (TPI, G3PDH); details: 1 mM substrate, 10 mM MgCl2, pH 8.0, 25 °C
T3 construct: gene kbaY; catalytic subunit alone without KbaZ, His-tagged, pET-28a(+), 31 kDa
T3 sequence (P0AB74 whole entry): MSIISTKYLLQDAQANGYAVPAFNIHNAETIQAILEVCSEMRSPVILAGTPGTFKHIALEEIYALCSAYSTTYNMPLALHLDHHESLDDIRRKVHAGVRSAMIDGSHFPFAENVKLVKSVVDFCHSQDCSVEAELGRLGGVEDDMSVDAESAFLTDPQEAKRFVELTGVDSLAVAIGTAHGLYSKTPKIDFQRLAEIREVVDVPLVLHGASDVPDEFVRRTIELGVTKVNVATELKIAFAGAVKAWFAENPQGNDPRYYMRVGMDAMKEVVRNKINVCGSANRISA

FruK (EC_FruK) [2] = biological target: T4, FruK (EC_FruK) (Escherichia coli, UniProt P0AEW9, A39S); experiment: coupled NADH oxidation assay (GatY, TPI, G3PDH); details: 2 mM ATP, 2 mM substrate, 10 mM MgCl2, pH 8.0, 25 °C
T4 construct: His-tagged, pET-28a(+), expressed in E. coli BL21(DE3)
T4 sequence (P0AEW9 whole entry A39S): as the sequence (P0AEW9 whole entry) above, with A39S counted along it

## O=P(O)(O)OCC1(O)O[C@H](CO)[C@@H](O)[C@@H]1O (stereo partly drawn) [D-Fru-1P]
FruK (EC_FruK) [1]
  coupled NADH oxidation assay (FbaA, TPI, G3PDH): for primary D-Fru-1P were much lower than that of FruK_WT

## O=P(O)(O)OC[C@H]1OC(O)(COP(=O)(O)O)[C@@H](O)[C@H]1O (stereo partly drawn) [D-Tag-1,6-BP]
EC_GatY
  coupled NADH oxidation assay (TPI, G3PDH): EC_GatY and EC_KbaY showed much lower D-Tag-1,6-BP cleavage activity than BL_GatY
EC_KbaY
  coupled NADH oxidation assay (TPI, G3PDH): EC_GatY and EC_KbaY showed much lower D-Tag-1,6-BP cleavage activity than BL_GatY

## O=P(O)(O)OC[C@H]1OC(O)(CO)[C@@H](O)[C@H]1O (stereo partly drawn) [D-Tag-6P]
FruK (EC_FruK) [2]
  coupled NADH oxidation assay (GatY, TPI, G3PDH): FruK_A39S showed relatively higher activities for D-Tag-6P than FruK_WT
